Measurements taken from patent US20200283728A1, “MODIFIED T CELLS AND USES THEREOF” (MUSC FOUNDATION FOR RESEARCH DEVELOPMENT, priority 2017, published 2020).

Key:
Format in all cases: cell-based, mouse
[1] = system: ICOS-activated Th17 cells; assay: Cytokine production of ICOS-stimulated TRP-1 Th17 cells expanded with inhibitors (intracellular FACS); conditions: 8 days of expansion, vs un-treated Th17 cells
Method: (§1) Expansion of Th17 cells with Wnt/β-catenin and PI3K inhibitors in vitro: TRP-1 splenocytes were activated with irradiated (10Gy) C57BL/6 splenocytes pulsed with TRP-1 peptide (1 μM) added at a 5:1 ratio in 24-well plates (1 mL media containing 1.5×10^6 cells/well). TRP-1 splenocytes were co-stimulated with soluble ICOS agonist (Clone 398.4A, BioLegend) and polarized toward Th17 phenotype as describe above. For in vitro expansion from day 0 of culture 10 μM Ly294002 (Cayman Chemical) or 10 μM CAL-101 (Selleckchem) and/or 60 μM indomethacin (Sigma-Aldrich) was added. Also dimethylosulfoxide 0.01% (Sigma-Aldrich) was added as a control. Th17 cultures were also supplemented with hrIL-2 (100 IU/mL) and rmIL-23 ([…]; R&D). Medium, including cytokines and inhibitors was refreshed every 2-3 days.
Surface staining of Th17 cells was performed with anti-CD4-APCCy7, anti-Vβ14-FITC (BD Biosciences) anti-CD62L-APC, anti-CD44-PerCPCy5.5, anti-CCR6-PE, anti-CD69-PECy7, anti-CCR7-PE, anti-CD27-PE, anti-CD28-PerCPCy5.5, anti-ICOS-PE and anti-CD25-PECy7/FITC (BioLegend) and viability stain (Invitrogen) on day 8. For all intracellular staining of cytokines (anti-IL-17 PerCPCy5.5, anti-IFN-γ-v450, anti-IL-2-FITC, anti-IL-21-APC, anti-IL-22-PE, anti-TNF-α-FITC; BioLegend) and transcription factors (anti-RORγt-APC, anti-cMaf-PerCPCy5.5, anti-STAT-3-PE, anti-FoxP3-FITC/PE, anti-T-bet-v450; eBiosciences), cells were stimulated for 4-5 h with 50 ng/mL PMA and 750 ng/mL ionomycin (Sigma-Aldrich). Additional antibodies used include: CD127-PECy7 clone A019D5, CD25-APCCy7 clone BC96, CD4-APCCy7 OKT4, CD45RO-APC clone UCHL1, CD62L-FITC clone DREG-56, CD8-PerCPCy5.5 clone SKI, TIM3-PE clone F38-2E2 (biolegend); CCR7-PECy7 clone CCR7, CD8-V450 clone RPA-T8, PD1-FITC clone M1H4, (BD Biosciences). Antibodies used for mouse cell analysis: CD127-PE/V450 clone A7R34, CD25-FITC clone 7D4, CD44-PerCPCy5.5/FITC clone IM7, CD69-PECy7 clone HI.2F3, CD8-PerCPCy5.5 clone 53-6.7, CD8-PECy7 clone YTS156.7.7, PD1-PerCPCy5.5 clone 29F.1A12 V[…]13-PE/APC clone MR12-3/MR12-4 (Biolegend), CD4-APCCy7 clone RM4-5, CD62L-APC clone MEL-14, KLRG1-APC/V450 clone 2F1 (BD). After 1 h, Monensin (BioLegend) was added per manufacturer's instructions. After surface staining, intracellular staining for cytokines and transcription factors was performed using Fixation and Permeabilization buffers (BioLegend) and Foxp3 Staining Buffers (eBioscience), respectively. Flow cytometry acquisition was performed on a FACSVerse or Accuri (BD Bioscience). Data were analyzed with FlowJo software (TreeStar). For experiments with sorted cells, CD8^+Vb13^+ T cells were sorted from pmel-1 cultures using Dynabeads untouched mouse CD8^+ T cell kit (Invitrogen) and a FACSAria cell sorting machine (BD Biosciences).

[2] = system: ICOS-activated Th17 cells; assay: Cytokine secretion of Th17 cells three days after priming (ELISA); conditions: day 3 after priming
Method: as §1, with “TRP-1” left out, “days. Cytokine levels were measured using the mouse IL-17A, INF-γ, IL-2, IL-9, IL-10, IL-21, IL-22, CCL-20, GM-CSF ELISA kits (R&D) following the manufacturer's protocol.” for “days.”

Wnt/β-catenin pathway = Wnt/β-catenin pathway expression in Th17 cells (Western blot, real-time PCR)
Method: Total RNA isolation was performed using the Trizol method (Life Technologies) according to the manufacturer's procedure. RNA quantity and purity was assessed using a NanoDrop ND-1000. 1 μg total RNA was transcribed with Transcriptor First Strand cDNA Synthesis Kit (Roche). qReal-time PCR was performed on LightCycler480 machine following manufacturer's protocols (Roche). Probes utilized include Rorc, IL-17, Cmaf IL-21, Cpt-1a, Tcf-7, Lef-1, Cnnb1. All probes are commercially available (ABI). Relative gene expression was determined by the comparative CT method (45). β-actin was used as housekeeping gene.
Nuclear and cytoplasmic protein were isolated by lysis using Nuclear and Cytoplasmic Extraction Reagent with Protease&Phosphatase Inhibitor Cocktail (ThermoScientific). Protein concentration was quantified using […] (ThermoScientific) according to the manufacturer's instructions. 10 to 30 μg of total protein was separated on a Mini-PROTEAN TGX, Any kD™ gel, followed by transfer onto PVDF membrane (Bio-Rad). The membranes were blocked with 5% BSA in TBS buffer containing 0.5% Tween20. The membranes were then incubated overnight at 4° C. with the primary antibodies to β-catenin (BD Bioscience), p110δ, Tcf7 (Abcam), RORγt (Affymetrix) phospho-Akt, total-Akt, STAT-3, Histone-3, Lef1 (abcam), and GAPDH (Cell Signaling) at the concentration recommended by manufactures. Subsequently, membranes were washed and incubated for 1 h at room temperature with (HRP)-conjugated goat antibodies to mouse or rabbit IgG (Cell Signaling). For detection of protein, chemiluminescence method was performed using Western ECL Blotting Substrate (Bio-Rad) followed by X-ray film-based imaging method (ThermoScientific). Quantification of optical density performed using Fiji analysis software (NIH).

[3] = CAL-101 10 μM, Indo 60 μM, Ly294002 10 μM

Q: What does the source list for `COc1ccc2c(c1)c(CC(=O)O)c(C)n2C(=O)c1ccc(Cl)cc1` [Indo, indomethacin]?
A: IFN-γ production [1, 3]: did not impact; IL-17A production [1, 3]: did not impact; IL-22 production [1]: increased; TNF-α production [1]: increased; CCL-20 secretion [2]: decreased; GM-CSF secretion [2]: no difference; IFN-γ secretion [2]: decreased; IL-2 secretion [2]: no difference; IL-9 secretion [2]: decreased; IL-10 secretion [2]: no difference; IL-17A secretion [2]: decreased; IL-21 secretion [2]: no difference; nuclear β-catenin after re-stimulation (Wnt/β-catenin pathway; antigen specific re-stimulation in vitro): re-expressed β-catenin to the level observed in un-treated ICOS stimulated Th17 cells; nuclear β-catenin expression (Wnt/β-catenin pathway; day 8, before re-stimulation / transfer): abolish β-catenin translocation to the nucleus
